Assay results taken from patent US11230526B1, “Cylcoalkenyl derivatives useful as agonists of the GPR120 and/or GPR40 receptors” (Janssen Pharmaceutica NV, priority 2018, dated 2022).

How the values were obtained:
human GPR40 = target: T1, human GPR40 (Homo sapiens, UniProt O14842); assay: GPR40 calcium flux assay, human GPR40; type: cell-based; conditions: HEK293 cells stably expressing GPR40; table does not say human or rat
T1 construct: expressed in transfected cells
Method in brief: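 Cells preincubated 1 h at 37° C. in HBSS, 20 mM HEPES, 0.1% BSA, then Fluo 8 calcium dye 30 min at 37° C. and 15 min at room temperature.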

Human GPR120 short form = target: T2, Human GPR120 short form (Homo sapiens, UniProt Q5NUL3); assay: Human GPR120 calcium flux assay, Procedure Calcium B (4200 cells/well); type: cell-based
T2 construct: expressed in transfected cells
T2 sequence (Q5NUL3 1-361): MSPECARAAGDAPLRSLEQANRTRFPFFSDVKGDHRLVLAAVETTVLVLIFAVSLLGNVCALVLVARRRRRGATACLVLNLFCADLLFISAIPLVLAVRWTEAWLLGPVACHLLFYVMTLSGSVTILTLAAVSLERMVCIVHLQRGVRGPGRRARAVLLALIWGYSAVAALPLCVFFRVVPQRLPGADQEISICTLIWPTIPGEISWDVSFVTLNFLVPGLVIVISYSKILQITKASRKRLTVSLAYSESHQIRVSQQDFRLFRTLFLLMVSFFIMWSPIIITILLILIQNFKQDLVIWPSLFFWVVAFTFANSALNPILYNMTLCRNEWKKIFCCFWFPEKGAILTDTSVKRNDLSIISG
Method in brief: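 Agonist EC50 came from a four-parameter fit of RFU (Fmax−Fmin) read over 300 s on FLIPR. Cells were HEK293 stably transfected with human GPR120 (NM_001195755.1) at 4200 per well, serum-starved 1 h and loaded with Fluo-4 NW dye with probenecid before ligand addition.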

T1 sequence (O14842 whole entry): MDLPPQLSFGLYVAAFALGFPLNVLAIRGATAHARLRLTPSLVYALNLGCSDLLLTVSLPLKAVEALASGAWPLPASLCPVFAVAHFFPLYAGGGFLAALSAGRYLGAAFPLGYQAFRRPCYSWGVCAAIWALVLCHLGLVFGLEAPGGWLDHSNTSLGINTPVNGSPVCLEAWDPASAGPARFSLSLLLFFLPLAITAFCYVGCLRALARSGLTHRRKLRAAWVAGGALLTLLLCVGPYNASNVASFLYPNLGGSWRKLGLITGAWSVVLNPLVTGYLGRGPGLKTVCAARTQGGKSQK

| SMILES | EC50 (human GPR40) [nM] | EC50 (Human GPR120 short form) [nM] |
| --- | --- | --- |
| O=C(O)CCc1ccc(OCC2=C(C3CCCC3)CCC2)c(F)c1 [Compound 425, 3-[4-[(2-cyclopentylcyclopenten-1-yl)methoxy]-3-fluoro-phenyl]Propanoic Acid] | 3230 | 143 |
| O=C(O)CCc1ccc(OCC2=C(C3CCCC3)CCC2)cc1F [Compound 426, 3-[4-[(2-cyclopentylcyclopenten-1-yl)methoxy]-2-fluoro-phenyl]Propanoic Acid] | 82 | 200 |
| O=C(O)CCc1ccc(OCC2=C(C3CCCC3)CCC2)cc1Cl [Compound 428, 3-[2-chloro-4-[(2-cyclopentylcyclopenten-1-yl)methoxy]phenyl]Propanoic Acid] | 48 | 256 |
| O=C(O)CCc1ccc(OCC2=C(C3(F)CCC3)CC(F)(F)C2)cc1C(F)(F)F [Compound 429, 3-[4-[[4,4-difluoro-2-(1-fluorocyclobutyl)cyclopenten-1-yl]methoxy]-2-(trifluoromethyl)phenyl]Propanoic Acid] | 89 | 844 |
| O=C(O)CCc1ccc(OCC2=C(C3CCC3)CC(F)(F)C2)cc1Cl [Compound 430, 3-[2-chloro-4-[(2-cyclobutyl-4,4-difluoro-cyclopenten-1-yl)methoxy]phenyl]Propanoic Acid] | 46 | 335 |
| Cc1c(CCC(=O)O)ccc(OCC2=C(C3CCCC3)CCC2)c1F [Compound 431, 3-[4-[(2-cyclopentylcyclopenten-1-yl)methoxy]-3-fluoro-2-methyl-phenyl]Propanoic Acid] | > 10000 | 59 |
| Cc1c(CCC(=O)O)ccc(OCC2=C(C3CCCC3)CCC2)c1C [Compound 432, 3-[4-[(2-cyclopentylcyclopenten-1-yl)methoxy]-2,3-dimethyl-phenyl]Propanoic Acid] | > 10000 | 44 |
| O=C(O)CCc1cc(F)c(OCC2=C(C3CCCC3)CCC2)cc1C(F)(F)F [Compound 433, 3-[4-[(2-cyclopentylcyclopenten-1-yl)methoxy]-5-fluoro-2-(trifluoromethyl)phenyl]Propanoic Acid] | > 10000 | > 5000 |
| COc1cc(OCC2=C(C3CCCC3)CCC2)ccc1CCC(=O)O [Compound 434, 3-[4-[(2-cyclopentylcyclopenten-1-yl)methoxy]-2-methoxy-phenyl]Propanoic Acid] | 59 | 387 |
| O=C(O)CCc1ccc(OCC2=C(C3CCCC3)CCC2)c(F)c1C(F)(F)F [Compound 435, 3-[4-[(2-cyclopentylcyclopenten-1-yl)methoxy]-3-fluoro-2-(trifluoromethyl)phenyl]Propanoic Acid] | > 10000 | > 5000 |

More lines, now with the values ahead:

| EC50 (human GPR40) [nM] | EC50 (Human GPR120 short form) [nM] | SMILES |
| --- | --- | --- |
| > 10000 | 159 | O=C(O)CCc1cc(F)c(OCC2=C(C3CCCC3)CCC2)c(F)c1 [Compound 436] |
| 138 | 3340 | O=C(O)CCc1ccc(OCC2=C(Cc3ccccc3F)CCC2)cc1Cl [Compound 438, 3-[2-chloro-4-[[2-[(2-fluorophenyl)methyl]cyclopenten-1-yl]methoxy]phenyl]Propanoic Acid] |
| > 10000 | > 5000 | O=C(O)CCc1c(F)cc(OCC2=C(C3CCCC3)CCC2)cc1C(F)(F)F [Compound 439, 3-[4-[(2-cyclopentylcyclopenten-1-yl)methoxy]-2-fluoro-6-(trifluoromethyl)phenyl]Propanoic Acid] |
| 382 | 2800 | O=C(O)CCc1ccc(OCC2=C(Cc3nccs3)CCC2)cc1C(F)(F)F [Compound 440, 3-[4-[[2-(thiazol-2-ylmethyl)cyclopenten-1-yl]methoxy]-2-(trifluoromethyl)phenyl]Propanoic Acid] |
| 35 | 100 | Cc1cc(OCC2=C(C3CCCC3)CC(F)(F)C2)ccc1CCC(=O)O [Compound 441, 3-[4-[(2-cyclopentyl-4,4-difluoro-cyclopenten-1-yl)methoxy]-2-methyl-phenyl]Propanoic Acid] |
